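Assay format: 96-well plates, 48-hour exposure. GI50 marks 50% less growth.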 The source made the active and inactive calls. No stated cut-off is given here; in the data, active = GI50 up to about 1.1 µM and inactive = higher.
Experiments:
Test in all cases: growth of human tumour cells (NCI), 48 h
786-0 = system: 786-0
A549 = system: A549
ACHN = system: ACHN
CAKI-1 = system: CAKI-1
COLO 205 = system: COLO 205
EKVX = system: EKVX
HCC 2998 = system: HCC 2998
MCF7 = system: MCF7
MDA-MB-231 = system: MDA-MB-231
NCI/ADR-RES = system: NCI/ADR-RES
OVCAR-4 = system: OVCAR-4
OVCAR-8 = system: OVCAR-8
RPMI-8226 = system: RPMI-8226
SF-295 = system: SF-295
SK-MEL-28 = system: SK-MEL-28
SN12C = system: SN12C
SR = system: SR
UACC-62 = system: UACC-62
UO-31 = system: UO-31

SMILES: CSc1ccc(-c2cc(-c3nc4ccccc4[nH]3)no2)cc1
- GI50 (786-0): 55.1 µM (inactive)
- GI50 (A549): 23.6 µM (inactive)
- GI50 (ACHN): 25.2 µM (inactive)
- GI50 (CAKI-1): 23.6 µM (inactive)
- GI50 (COLO 205): 23.9 µM (inactive)
- GI50 (EKVX): 24.7 µM (inactive)
- GI50 (HCC 2998): 16.2 µM (inactive)
- GI50 (MCF7): 9.02 µM (inactive)
- GI50 (MDA-MB-231): 40.6 µM (inactive)
- GI50 (NCI/ADR-RES): 23.2 µM (inactive)
- GI50 (OVCAR-4): 0.0562 µM (active)
- GI50 (OVCAR-8): 35 µM (inactive)
- GI50 (RPMI-8226): 24.4 µM (inactive)
- GI50 (SF-295): 28.7 µM (inactive)
- GI50 (SK-MEL-28): 27.6 µM (inactive)
- GI50 (SN12C): 50.2 µM (inactive)
- GI50 (SR): 23.6 µM (inactive)
- GI50 (UACC-62): 16.4 µM (inactive)
- GI50 (UO-31): 13.1 µM (inactive)

SMILES: Cc1ccc(C2=Nn3c(nc4sc(C)c(C)c4c3=O)SC2)cc1
- GI50 (786-0): > 100 µM (inactive)
- GI50 (A549): > 100 µM (inactive)
- GI50 (ACHN): > 100 µM (inactive)
- GI50 (CAKI-1): > 100 µM (inactive)
- GI50 (COLO 205): > 100 µM (inactive)
- GI50 (EKVX): > 100 µM (inactive)
- GI50 (HCC 2998): > 100 µM (inactive)
- GI50 (MCF7): > 100 µM (inactive)
- GI50 (MDA-MB-231): > 100 µM (inactive)
- GI50 (NCI/ADR-RES): > 100 µM (inactive)
- GI50 (OVCAR-4): > 100 µM (inactive)
- GI50 (OVCAR-8): > 100 µM (inactive)
- GI50 (RPMI-8226): > 100 µM (inactive)
- GI50 (SF-295): > 100 µM (inactive)
- GI50 (SK-MEL-28): > 100 µM (inactive)
- GI50 (SN12C): > 100 µM (inactive)
- GI50 (SR): > 100 µM (inactive)
- GI50 (UACC-62): > 100 µM (inactive)
- GI50 (UO-31): > 100 µM (inactive)

SMILES: CCOP(=O)(OCC)/C(=C\n1ccc(=O)[nH]c1=S)C(=O)OC
- GI50 (786-0): > 100 µM (inactive)
- GI50 (A549): > 100 µM (inactive)
- GI50 (ACHN): > 100 µM (inactive)
- GI50 (CAKI-1): > 100 µM (inactive)
- GI50 (COLO 205): > 100 µM (inactive)
- GI50 (EKVX): > 100 µM (inactive)
- GI50 (HCC 2998): > 100 µM (inactive)
- GI50 (MCF7): > 100 µM (inactive)
- GI50 (MDA-MB-231): > 100 µM (inactive)
- GI50 (NCI/ADR-RES): > 100 µM (inactive)
- GI50 (OVCAR-4): > 100 µM (inactive)
- GI50 (OVCAR-8): > 100 µM (inactive)
- GI50 (RPMI-8226): > 100 µM (inactive)
- GI50 (SF-295): > 100 µM (inactive)
- GI50 (SK-MEL-28): > 100 µM (inactive)
- GI50 (SN12C): > 100 µM (inactive)
- GI50 (SR): > 100 µM (inactive)
- GI50 (UACC-62): > 100 µM (inactive)
- GI50 (UO-31): > 100 µM (inactive)

SMILES: O=C(c1ccccc1)c1c(-c2ccccc2)n(-c2ccccc2)[nH]c(=O)c1=O
- GI50 (786-0): 31.2 µM (inactive)
- GI50 (A549): > 100 µM (inactive)
- GI50 (ACHN): 22.2 µM (inactive)
- GI50 (CAKI-1): 37.6 µM (inactive)
- GI50 (COLO 205): 75.2 µM (inactive)
- GI50 (EKVX): 55.5 µM (inactive)
- GI50 (HCC 2998): > 100 µM (inactive)
- GI50 (MCF7): 46.7 µM (inactive)
- GI50 (MDA-MB-231): 20.2 µM (inactive)
- GI50 (NCI/ADR-RES): 62.4 µM (inactive)
- GI50 (OVCAR-4): 32.6 µM (inactive)
- GI50 (OVCAR-8): 46 µM (inactive)
- GI50 (RPMI-8226): 27.5 µM (inactive)
- GI50 (SF-295): 28.2 µM (inactive)
- GI50 (SK-MEL-28): > 100 µM (inactive)
- GI50 (SN12C): 69 µM (inactive)
- GI50 (SR): 23.8 µM (inactive)
- GI50 (UACC-62): 12.3 µM (inactive)
- GI50 (UO-31): 48.4 µM (inactive)

SMILES: CC1(c2nc3cc(Cl)c(Cl)cc3[nH]2)CCC(CO)C(C)(C)O1 (stereo not drawn)
- GI50 (786-0): 42 µM (inactive)
- GI50 (A549): 33.6 µM (inactive)
- GI50 (ACHN): 30.3 µM (inactive)
- GI50 (CAKI-1): 29.3 µM (inactive)
- GI50 (COLO 205): 25.1 µM (inactive)
- GI50 (EKVX): 23 µM (inactive)
- GI50 (HCC 2998): 32.2 µM (inactive)
- GI50 (MCF7): 35.9 µM (inactive)
- GI50 (MDA-MB-231): 22.8 µM (inactive)
- GI50 (NCI/ADR-RES): 17.7 µM (inactive)
- GI50 (OVCAR-4): 25.1 µM (inactive)
- GI50 (OVCAR-8): 19.5 µM (inactive)
- GI50 (RPMI-8226): 16.9 µM (inactive)
- GI50 (SF-295): 31 µM (inactive)
- GI50 (SK-MEL-28): 24.8 µM (inactive)
- GI50 (SN12C): 32 µM (inactive)
- GI50 (SR): 19.9 µM (inactive)
- GI50 (UACC-62): 17.6 µM (inactive)
- GI50 (UO-31): 15.1 µM (inactive)

SMILES: CNC(=O)/C=C/C1=CN2C(=O)c3ccc(C)c(O)c3NC(OC)C2C1 (stereo not drawn)
- GI50 (786-0): < 0.01 µM (active)
- GI50 (A549): < 0.0149 µM (active)
- GI50 (ACHN): 0.0142 µM (active)
- GI50 (CAKI-1): < 0.0166 µM (active)
- GI50 (COLO 205): 0.0136 µM (active)
- GI50 (EKVX): 0.0163 µM (active)
- GI50 (HCC 2998): < 0.0126 µM (active)
- GI50 (MCF7): < 0.0163 µM (active)
- GI50 (MDA-MB-231): < 0.01 µM (active)
- GI50 (NCI/ADR-RES): < 0.01 µM (active)
- GI50 (OVCAR-4): < 0.0132 µM (active)
- GI50 (OVCAR-8): < 0.0141 µM (active)
- GI50 (RPMI-8226): 0.0234 µM (active)
- GI50 (SF-295): 0.0168 µM (active)
- GI50 (SK-MEL-28): 0.0145 µM (active)
- GI50 (SN12C): < 0.01 µM (active)
- GI50 (SR): < 0.0156 µM (active)
- GI50 (UACC-62): < 0.0124 µM (active)
- GI50 (UO-31): < 0.0143 µM (active)

SMILES: Oc1c(O)c(Cc2ccccc2)c(Cc2ccccc2)c(Cc2ccccc2)c1Cc1ccccc1
- GI50 (786-0): > 10 µM (inactive)
- GI50 (A549): > 10 µM (inactive)
- GI50 (ACHN): > 10 µM (inactive)
- GI50 (CAKI-1): > 10 µM (inactive)
- GI50 (COLO 205): > 10 µM (inactive)
- GI50 (EKVX): > 10 µM (inactive)
- GI50 (HCC 2998): > 10 µM (inactive)
- GI50 (MCF7): > 10 µM (inactive)
- GI50 (MDA-MB-231): > 10 µM (inactive)
- GI50 (NCI/ADR-RES): > 10 µM (inactive)
- GI50 (OVCAR-4): > 10 µM (inactive)
- GI50 (OVCAR-8): > 10 µM (inactive)
- GI50 (RPMI-8226): > 10 µM (inactive)
- GI50 (SF-295): > 10 µM (inactive)
- GI50 (SK-MEL-28): > 10 µM (inactive)
- GI50 (SN12C): > 10 µM (inactive)
- GI50 (SR): > 10 µM (inactive)
- GI50 (UACC-62): > 10 µM (inactive)
- GI50 (UO-31): > 10 µM (inactive)

From ChEMBL document CHEMBL1201862, “PubChem BioAssay data set” (2004)
